We go through two compounds from paper PMC5909127, “Optimization of a “bump-and-hole” approach to allele-selective BET bromodomain inhibition” (Chemical Science, 2018).

Data set [1] addresses BRD2 BD2 WT (Homo sapiens, UniProt P25440). As to the kind of experiment: competitive AlphaLISA. Type of data set: binding.
Data set [2] addresses BRD3 BD2 L/V (Homo sapiens, UniProt Q15059, L345V). The data set can be described thus: competitive AlphaLISA. In kind it is binding. (In general: Alpha assays give light when donor and acceptor beads are brought close together.)
Data set [3] concerns the target BRD4 BD2 WT (Homo sapiens, UniProt O60885). The data set can be described thus: competitive AlphaLISA. Type of data set: binding.
In data set [4] the target is BRDT BD2 WT (Homo sapiens, UniProt Q58F21). The data set can be described thus: competitive AlphaLISA. In kind it is binding.
Data set [5] has as its target BRDT BD2 L/V (Homo sapiens, UniProt Q58F21, L306V). The data set can be described thus: competitive AlphaLISA. In kind it is binding.
Data set [6] is described as follows: Intrinsic Clearance. As to conditions: mouse liver microsomes. For orientation: Liver microsomes are a subcellular fraction often used to study metabolism.
For data set [7], the system named is GFP-BRD4 L/V constructs with NF-κB-RE/luc2P reporter in HEK293T cells. The data set can be described thus: NF-κB luciferase assay. The note with it: 1 µM, inhibiting either individual BD of BRD4. Type of data set: cell-based, human. On the procedure:
To provide additional functional insights into the individual roles of BD1 vs. BD2 beyond chromatin binding, a luciferase assay was developed to monitor the expression of NF-κB target genes, inspired by work of Zou et al.[45] […] This luciferase induction was maintained with L/V mutations (but not L/A), consistent again with more WT-like functionality of L/V compared to L/A (Fig. 9A).
12 – NF-κB Luciferase Assay
Luciferase experiments were performed in human HEK293T cells seeded in a 24-well plate at 100 000 cells in […]
pBABE NF-κB-RE/luc2P reporter plasmid. Cells were transfected using Lipofectamine™ LTX (Invitrogen) with PLUS™ reagent, with each well receiving 0.5 µg of each plasmid, 2.5 µl LTX and 0.5 µl PLUS reagent. The next day cells were treated with compounds, giving a final concentration of 1 µM compound and 0.01% DMSO. 6 hours later cells were washed with PBS, lysed with passive lysis buffer (Promega) and stored at -20°C.
Luciferase activity was measured suing the Promega luciferase assay. In a black 384-well plate 3µl of clarified lysate was mixed with 15µl luciferase assay reagent and after 15 minutes luminescence was measured in a Pherastar FS. […]
NMR spectra were recorded on a Bruker 500 Ultrashield or a Bruker Ascend 400. […] High Resolution Mass Spectra (HRMS) were recorded on a Bruker micrOTOF. […]

Data set [8] concerns the target Y1 (h) (Homo sapiens, UniProt P25929). As to the kind of experiment: CEREP ExpresSProfile. As to conditions: read-out: Mean % of control specific binding (±SD).
For data set [9], the target named is H2 (h) (Homo sapiens, UniProt P25021). As to the kind of experiment: CEREP ExpresSProfile. The note with it: read-out: Mean % of control specific binding (±SD).
H2 (h), sequence (P25021 whole entry): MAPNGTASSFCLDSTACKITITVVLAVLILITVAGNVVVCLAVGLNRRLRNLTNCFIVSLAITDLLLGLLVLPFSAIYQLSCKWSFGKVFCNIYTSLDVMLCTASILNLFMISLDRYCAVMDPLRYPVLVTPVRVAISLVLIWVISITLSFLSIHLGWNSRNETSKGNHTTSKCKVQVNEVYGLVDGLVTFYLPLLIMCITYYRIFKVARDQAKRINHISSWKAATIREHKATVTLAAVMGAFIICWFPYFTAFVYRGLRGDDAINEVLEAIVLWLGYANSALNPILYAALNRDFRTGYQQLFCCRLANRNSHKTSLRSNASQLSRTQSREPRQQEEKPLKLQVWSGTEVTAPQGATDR
Data set [10] deals with D1 (h) (Homo sapiens, UniProt P21728). As to the kind of experiment: CEREP ExpresSProfile. The note with it: read-out: Mean % of control specific binding (±SD).
D1 (h), sequence (P21728 whole entry): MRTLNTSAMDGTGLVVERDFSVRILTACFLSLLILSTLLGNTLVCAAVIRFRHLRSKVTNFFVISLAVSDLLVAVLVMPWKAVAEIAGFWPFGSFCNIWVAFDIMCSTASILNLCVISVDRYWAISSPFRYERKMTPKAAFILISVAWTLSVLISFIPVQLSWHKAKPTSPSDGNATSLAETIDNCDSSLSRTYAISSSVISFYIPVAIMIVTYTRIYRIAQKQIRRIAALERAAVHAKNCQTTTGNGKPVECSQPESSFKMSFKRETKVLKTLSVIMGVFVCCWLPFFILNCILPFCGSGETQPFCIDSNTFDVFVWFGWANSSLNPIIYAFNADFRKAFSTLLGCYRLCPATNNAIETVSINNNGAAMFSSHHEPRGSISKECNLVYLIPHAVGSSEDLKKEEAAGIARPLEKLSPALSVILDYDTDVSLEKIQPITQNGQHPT
The target of data set [11] is 5-HT5a (h) (Homo sapiens, UniProt P47898). As to the kind of experiment: CEREP ExpresSProfile. As to conditions: read-out: Mean % of control specific binding (±SD).
5-HT5a (h), sequence (P47898 whole entry): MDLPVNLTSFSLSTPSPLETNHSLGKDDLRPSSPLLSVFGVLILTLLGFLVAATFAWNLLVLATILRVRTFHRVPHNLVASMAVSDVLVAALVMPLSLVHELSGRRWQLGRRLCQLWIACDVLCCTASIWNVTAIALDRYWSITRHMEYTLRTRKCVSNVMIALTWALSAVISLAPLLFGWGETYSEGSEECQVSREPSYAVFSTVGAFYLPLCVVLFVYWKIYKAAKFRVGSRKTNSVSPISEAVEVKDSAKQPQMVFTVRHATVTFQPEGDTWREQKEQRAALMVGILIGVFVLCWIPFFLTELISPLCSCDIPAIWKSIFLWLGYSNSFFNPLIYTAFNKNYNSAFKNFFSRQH
Data set [12] deals with Ca2+ channel (L, verapamil site). As to the kind of experiment: CEREP ExpresSProfile. In kind it is binding. The note with it: 1 µM.
Data set [13] concerns the target V1a (h) (Homo sapiens, UniProt P37288). As to the kind of experiment: CEREP ExpresSProfile. As to conditions: read-out: Mean % of control specific binding (±SD).
For data set [14], the target named is B2 (h) (Homo sapiens, UniProt P30411). The data set can be described thus: CEREP ExpresSProfile. The note with it: read-out: Mean % of control specific binding (±SD).
B2 (h), sequence (P30411 whole entry): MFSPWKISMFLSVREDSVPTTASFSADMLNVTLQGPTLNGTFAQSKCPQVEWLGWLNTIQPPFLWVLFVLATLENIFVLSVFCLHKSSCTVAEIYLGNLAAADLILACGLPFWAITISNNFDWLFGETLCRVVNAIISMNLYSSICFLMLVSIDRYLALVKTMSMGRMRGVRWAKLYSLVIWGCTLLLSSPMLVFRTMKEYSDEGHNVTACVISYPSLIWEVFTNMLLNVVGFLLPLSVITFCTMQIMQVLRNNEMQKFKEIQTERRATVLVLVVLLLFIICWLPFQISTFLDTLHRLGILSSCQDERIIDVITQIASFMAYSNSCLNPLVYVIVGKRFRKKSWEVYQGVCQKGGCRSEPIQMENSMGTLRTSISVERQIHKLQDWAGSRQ
Data set [15] addresses 5-HT1B (Rattus norvegicus, UniProt P28564). The data set can be described thus: CEREP ExpresSProfile. As to conditions: read-out: Mean % of control specific binding (±SD).
The target of data set [16] is VPAC1 (VIP1) (h) (Homo sapiens, UniProt P32241). As to the kind of experiment: CEREP ExpresSProfile. As to conditions: read-out: Mean % of control specific binding (±SD).
Text: (§1) Receptor Reference Compound Mean % of control specific
Receptor & Ion-Channel Screening
CEREP ExpresSProfile panel
For data set [17], the system named is alpha 2 (non-selective). The data set can be described thus: CEREP ExpresSProfile. Type of data set: binding. As to conditions: 1 µM.
In data set [18] the target is CXCR2 (IL-8B) (h) (Homo sapiens, UniProt P25025). As to the kind of experiment: CEREP ExpresSProfile. The note with it: read-out: Mean % of control specific binding (±SD).
CXCR2 (IL-8B) (h), sequence (P25025 whole entry): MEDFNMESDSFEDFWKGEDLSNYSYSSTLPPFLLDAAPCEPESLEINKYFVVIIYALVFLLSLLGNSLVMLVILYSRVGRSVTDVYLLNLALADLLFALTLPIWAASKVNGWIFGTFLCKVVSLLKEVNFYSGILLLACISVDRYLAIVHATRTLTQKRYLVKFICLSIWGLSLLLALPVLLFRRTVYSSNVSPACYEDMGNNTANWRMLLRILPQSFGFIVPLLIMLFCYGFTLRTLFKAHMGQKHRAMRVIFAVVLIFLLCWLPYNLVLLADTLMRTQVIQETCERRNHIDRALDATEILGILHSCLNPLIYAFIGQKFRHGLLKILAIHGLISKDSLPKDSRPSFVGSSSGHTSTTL
Text: as §1
Receptor & Ion-Channel Screening
CEREP ExpresSProfile panel
Data set [19] has as its target 5-HT3 (h) (Homo sapiens, UniProt P46098). As to the kind of experiment: CEREP ExpresSProfile. The note with it: read-out: Mean % of control specific binding (±SD).
Text: as §1
Receptor & Ion-Channel Screening
CEREP ExpresSProfile panel
The target of data set [20] is D2S (h) (Homo sapiens, UniProt P14416). As to the kind of experiment: CEREP ExpresSProfile. As to conditions: read-out: Mean % of control specific binding (±SD).
D2S (h), sequence (P14416 1-414 isoform P14416-2): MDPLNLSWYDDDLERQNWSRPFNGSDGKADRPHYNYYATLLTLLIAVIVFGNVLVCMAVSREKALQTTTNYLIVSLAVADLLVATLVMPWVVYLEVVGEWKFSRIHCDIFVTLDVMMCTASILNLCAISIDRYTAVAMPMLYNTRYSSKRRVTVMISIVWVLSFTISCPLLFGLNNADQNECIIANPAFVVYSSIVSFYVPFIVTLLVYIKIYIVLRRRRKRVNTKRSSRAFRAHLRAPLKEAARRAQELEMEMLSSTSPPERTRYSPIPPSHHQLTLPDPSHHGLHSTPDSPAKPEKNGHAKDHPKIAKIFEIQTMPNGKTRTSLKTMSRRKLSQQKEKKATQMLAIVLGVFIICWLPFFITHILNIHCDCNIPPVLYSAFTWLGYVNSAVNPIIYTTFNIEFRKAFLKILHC
In data set [21] the target is beta 1 (h) (Homo sapiens, UniProt P08588). The data set can be described thus: CEREP ExpresSProfile. The note with it: read-out: Mean % of control specific binding (±SD).
beta 1 (h), sequence (P08588 whole entry): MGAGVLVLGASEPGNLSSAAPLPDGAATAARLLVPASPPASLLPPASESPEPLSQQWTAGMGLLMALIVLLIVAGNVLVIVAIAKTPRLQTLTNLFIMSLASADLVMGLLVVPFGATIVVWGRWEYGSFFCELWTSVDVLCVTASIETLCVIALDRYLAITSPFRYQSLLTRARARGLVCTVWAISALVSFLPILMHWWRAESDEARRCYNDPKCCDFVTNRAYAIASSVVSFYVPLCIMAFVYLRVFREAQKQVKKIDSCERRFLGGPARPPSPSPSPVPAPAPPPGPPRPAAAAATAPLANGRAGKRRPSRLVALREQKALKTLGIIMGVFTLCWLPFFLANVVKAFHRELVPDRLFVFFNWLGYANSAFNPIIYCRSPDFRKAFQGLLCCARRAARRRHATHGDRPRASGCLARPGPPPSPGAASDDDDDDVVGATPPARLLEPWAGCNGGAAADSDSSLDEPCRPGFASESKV
Data set [22] deals with A3 (h) (Homo sapiens, UniProt P0DMS8). As to the kind of experiment: CEREP ExpresSProfile. The note with it: read-out: Mean % of control specific binding (±SD).
A3 (h), sequence (P0DMS8 whole entry): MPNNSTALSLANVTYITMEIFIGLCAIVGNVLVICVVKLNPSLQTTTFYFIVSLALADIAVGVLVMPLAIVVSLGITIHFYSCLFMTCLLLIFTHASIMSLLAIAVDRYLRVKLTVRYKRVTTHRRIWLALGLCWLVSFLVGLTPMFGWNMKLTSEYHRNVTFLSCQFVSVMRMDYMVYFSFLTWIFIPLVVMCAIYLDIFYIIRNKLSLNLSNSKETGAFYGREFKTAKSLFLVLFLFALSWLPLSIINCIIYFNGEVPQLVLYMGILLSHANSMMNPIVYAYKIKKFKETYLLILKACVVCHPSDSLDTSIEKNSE
Text: as §1
Receptor & Ion-Channel Screening
CEREP ExpresSProfile panel
Data set [23] addresses CCK1 (CCKA) (h) (Homo sapiens, UniProt P32238). The data set can be described thus: CEREP ExpresSProfile. As to conditions: read-out: Mean % of control specific binding (±SD).
Text: as §1
Receptor & Ion-Channel Screening
CEREP ExpresSProfile panel

BRD3 BD2 L/V, sequence (Q15059 306-416 L345V limits assumed): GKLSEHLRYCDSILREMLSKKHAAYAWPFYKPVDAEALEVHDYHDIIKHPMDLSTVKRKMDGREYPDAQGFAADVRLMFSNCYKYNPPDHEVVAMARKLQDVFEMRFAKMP
Y1 (h), sequence (P25929 whole entry): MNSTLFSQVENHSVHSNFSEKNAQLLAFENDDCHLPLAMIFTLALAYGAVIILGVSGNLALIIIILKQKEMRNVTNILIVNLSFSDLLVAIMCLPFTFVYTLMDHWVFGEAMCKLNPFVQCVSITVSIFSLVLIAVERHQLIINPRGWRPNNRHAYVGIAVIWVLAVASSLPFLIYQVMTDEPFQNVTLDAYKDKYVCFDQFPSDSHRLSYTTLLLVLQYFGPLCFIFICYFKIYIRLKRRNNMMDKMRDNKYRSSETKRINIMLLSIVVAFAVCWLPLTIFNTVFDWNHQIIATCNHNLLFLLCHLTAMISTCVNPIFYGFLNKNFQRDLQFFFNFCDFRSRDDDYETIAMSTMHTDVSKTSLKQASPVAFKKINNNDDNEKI
V1a (h), sequence (P37288 whole entry): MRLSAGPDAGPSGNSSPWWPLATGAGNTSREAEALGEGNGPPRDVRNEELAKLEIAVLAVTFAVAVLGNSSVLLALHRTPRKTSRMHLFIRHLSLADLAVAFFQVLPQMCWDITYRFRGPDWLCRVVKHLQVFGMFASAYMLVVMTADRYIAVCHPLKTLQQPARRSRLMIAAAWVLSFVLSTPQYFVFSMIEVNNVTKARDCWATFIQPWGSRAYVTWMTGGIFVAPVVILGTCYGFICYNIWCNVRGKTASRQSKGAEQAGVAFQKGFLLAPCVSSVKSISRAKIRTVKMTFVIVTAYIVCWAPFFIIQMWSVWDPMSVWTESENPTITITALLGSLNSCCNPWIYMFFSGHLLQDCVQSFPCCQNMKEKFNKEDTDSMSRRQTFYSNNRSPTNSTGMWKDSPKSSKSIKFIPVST
CCK1 (CCKA) (h), sequence (P32238 whole entry): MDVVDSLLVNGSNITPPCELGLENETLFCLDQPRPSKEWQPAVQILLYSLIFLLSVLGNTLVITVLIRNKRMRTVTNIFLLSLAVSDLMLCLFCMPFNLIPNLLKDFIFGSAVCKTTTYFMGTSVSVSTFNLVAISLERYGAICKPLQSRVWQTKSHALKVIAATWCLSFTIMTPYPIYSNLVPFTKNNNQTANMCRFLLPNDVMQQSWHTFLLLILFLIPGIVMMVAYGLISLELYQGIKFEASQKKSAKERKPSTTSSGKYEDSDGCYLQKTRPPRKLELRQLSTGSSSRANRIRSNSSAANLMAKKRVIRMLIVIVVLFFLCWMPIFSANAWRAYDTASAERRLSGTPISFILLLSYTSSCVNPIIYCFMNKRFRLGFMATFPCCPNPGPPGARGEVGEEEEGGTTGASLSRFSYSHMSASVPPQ
5-HT3 (h), sequence (P46098 24-478): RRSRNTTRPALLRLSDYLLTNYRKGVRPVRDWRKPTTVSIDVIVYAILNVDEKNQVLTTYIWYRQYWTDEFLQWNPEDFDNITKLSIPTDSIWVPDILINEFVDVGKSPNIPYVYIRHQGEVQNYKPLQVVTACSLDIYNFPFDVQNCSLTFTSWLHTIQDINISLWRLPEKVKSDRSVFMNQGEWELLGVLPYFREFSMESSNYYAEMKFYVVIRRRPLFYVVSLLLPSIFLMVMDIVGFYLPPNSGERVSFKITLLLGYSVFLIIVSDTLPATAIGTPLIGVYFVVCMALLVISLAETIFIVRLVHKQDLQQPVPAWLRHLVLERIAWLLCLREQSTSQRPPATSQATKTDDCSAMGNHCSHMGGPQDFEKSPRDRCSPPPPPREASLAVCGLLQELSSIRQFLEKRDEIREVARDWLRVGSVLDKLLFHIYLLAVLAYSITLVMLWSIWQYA

Take `CC[C@@H](C(=O)OC)[C@@H]1N=C(c2ccc(Cl)cc2)c2ccc(OC)cc2-n2c(C)nnc21` (racemic) [Compound 8]: the IC50 in data set [1] is 3.98 µM; in data set [2] it was 0.0794 µM; in data set [3], 3.16 µM; in data set [4] it was 3.98 µM; in [5], 0.398 µM. The compound also had a CL int in data set [6] of 4.1 ml min^–1 g^–1.
With `COC(=O)[C@H](C)[C@@H]1N=C(c2ccc(Cl)cc2)c2ccc(OC)cc2-n2c(C)nnc21` [(2R,3S)-7], in data set [7], the “effect on NF-κB signalling” value is on record as “strongly impacted on NF-κB signalling”. Moreover, the remaining activity at 1 µM in [8] was determined as 122%; in data set [9] it was 117%; in data set [10] it was 116%; in [11] it was 109%; in [13] it was 102%; in data set [14] it was 98%. For the same compound, the remaining activity at 1 µM in data set [15] came to 98%; in [16], 98%; in data set [18], 96%; in data set [19], 96%; in [20], 95%; in [21] it was 95%. Also, the remaining activity at 1 µM came to 91% in data set [22] and 90% in [23]. Besides, the “Mean % of control specific binding (±SD)” value in data set [12] is reported as 108 (6) %; in [17], 98 (0) %.

As usually defined, the IC50 is the concentration at which inhibition is half-maximal.
